Here are results for 20 molecules from patent US20240124417A1, “COMPOUNDS USEFUL AS IMMUNOMODULATORS” (Bristol-Myers Squibb Company, priority 2019, published 2024).

The IC50 is the concentration needed to halve the response being measured. High values mean weaker potency in that assay, low ones greater potency in that assay.

In the test the target is T1, PD-1/PD-L1 (Homo sapiens, UniProt Q9NZQ7).
T1 construct: TVMV protease site linker (C); made in house; host or cells: HEK293T cells
The experiment in a line: PD-1/PD-L1 Homogenous Time-Resolved Fluorescence (HTRF) binding assay. Particulars: PD-L1-His 10 nM, PD-1-Ig 20 nM. The essentials:
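Time-resolved FRET read-out using Eu-cryptate anti-Ig (1 nM final) and APC anti-His (20 nM final). Tagged extracellular domains were used in BSA/Tween-20-supplemented dPBS, with compound pre-incubated 15 min with PD-L1-His (10 nM) before PD-1-Ig (20 nM) was added for 15 min. Other human pairs: PD-L2-His 5 nM with PD-1-Ig 20 nM; PD-L1-Ig 10 nM with CD80-His 100 nM.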

T1 sequence (Q9NZQ7 18-239): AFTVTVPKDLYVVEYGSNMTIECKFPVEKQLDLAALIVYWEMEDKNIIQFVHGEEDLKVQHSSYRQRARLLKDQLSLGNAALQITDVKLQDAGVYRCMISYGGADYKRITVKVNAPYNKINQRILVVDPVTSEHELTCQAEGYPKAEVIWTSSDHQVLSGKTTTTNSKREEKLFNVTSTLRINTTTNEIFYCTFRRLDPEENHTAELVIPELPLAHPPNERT

`Cc1c(COc2cc(OCc3cncc(C#N)c3)c(CN3CCc4[nH]ncc4C3)cc2Cl)cccc1-c1cccc(OCCCN2CC[C@@H](O)C2)c1C` [Example 2512, (R)-5-((4-chloro-5-((3′-(3-(3-hydroxypyrrolidin-1-yl)propoxy)-2,2′-dimethyl-[1,1′-biphenyl]-3-yl)methoxy)-2-((1,4,6,7-tetrahydro-5H-pyrazolo[4,3-c]pyridin-5-yl)methyl)phenoxy)methyl)nicotinonitrile] showed a half-inhibitory concentration (IC50) of 3.9 nM. This lies in the single-digit nanomolar range.
To `Cc1c(COc2cc(OCc3cncc(C#N)c3)c(CN3CCC(c4cc[nH]n4)C3)cc2Cl)cccc1-c1cccc(OCCCN2CC[C@@H](O)C2)c1C` (stereo partly drawn) [Example 2513, 5-((2-((3-(1H-pyrazol-3-yl)pyrrolidin-1-yl)methyl)-4-chloro-5-((3′-(3-((R)-3-hydroxypyrrolidin-1-yl)propoxy)-2,2′-dimethyl-[1,1′-biphenyl]-3-yl)methoxy)phenoxy)methyl)nicotinonitrile] belongs 3.6 nM; to `Cc1c(COc2cc(OCc3cncc(C#N)c3)c(CNCCc3cc[nH]n3)cc2Cl)cccc1-c1cccc(OCCCN2CC[C@@H](O)C2)c1C` [Example 2514, (R)-5-((2-(((2-(1H-pyrazol-3-yl)ethyl)amino)methyl)-4-chloro-5-((3′-(3-(3-hydroxypyrrolidin-1-yl)propoxy)-2,2′-dimethyl-[1,1′-biphenyl]-3-yl)methoxy)phenoxy)methyl)nicotinonitrile], 1.9 nM.
To `Cc1c(COc2cc(OCc3cncc(C#N)c3)c(CN3CCc4[nH]cnc4C3)cc2Cl)cccc1-c1cccc(OCCCN2CC[C@@H](O)C2)c1C` [Example 2515, (R)-5-((4-chloro-5-((3′-(3-(3-hydroxypyrrolidin-1-yl)propoxy)-2,2′-dimethyl-[1,1′-biphenyl]-3-yl)methoxy)-2-((1,4,6,7-tetrahydro-5H-imidazo[4,5-c]pyridin-5-yl)methyl)phenoxy)methyl)nicotinonitrile] belongs 3.8 nM; to `Cc1c(COc2cc(OCc3cncc(C#N)c3)c(CNCCc3nc4cc(Cl)ccc4[nH]3)cc2Cl)cccc1-c1cccc(OCCCN2CC[C@@H](O)C2)c1C` [Example 2516, (R)-5-((4-chloro-2-(((2-(5-chloro-1H-benzo[d]imidazol-2-yl)ethyl)amino)methyl)-5-((3′-(3-(3-hydroxypyrrolidin-1-yl)propoxy)-2,2′-dimethyl-[1,1′-biphenyl]-3-yl)methoxy)phenoxy)methyl)nicotinonitrile], 4.5 nM.
To `Cc1c(COc2cc(OCc3cncc(C#N)c3)c(CN(C)CCc3nc4cc(Cl)ccc4[nH]3)cc2Cl)cccc1-c1cccc(OCCCN2CC[C@@H](O)C2)c1C` [Example 2517, (R)-5-((4-chloro-2-(((2-(5-chloro-1H-benzo[d]imidazol-2-yl)ethyl)(methyl)amino)methyl)-5-((3′-(3-(3-hydroxypyrrolidin-1-yl)propoxy)-2,2′-dimethyl-[1,1′-biphenyl]-3-yl)methoxy)phenoxy)methyl)nicotinonitrile] belongs 12.4 nM; to `Cc1c(COc2cc(OCc3cncc(C#N)c3)c(CN(C)CCc3cc[nH]n3)cc2Cl)cccc1-c1cccc(OCCCN2CC[C@@H](O)C2)c1C` [Example 2518, (R)-5-((2-(((2-(1H-pyrazol-3-yl)ethyl)(methyl)amino)methyl)-4-chloro-5-((3′-(3-(3-hydroxypyrrolidin-1-yl)propoxy)-2,2′-dimethyl-[1,1′-biphenyl]-3-yl)methoxy)phenoxy)methyl)nicotinonitrile], 4.4 nM; to `Cc1c(COc2cc(OCc3cncc(C#N)c3)c(CNCCc3ncn[nH]3)cc2Cl)cccc1-c1cccc(OCCCN2CC[C@@H](O)C2)c1C` [Example 2519, (R)-5-((2-(((2-(1H-1,2,4-triazol-5-yl)ethyl)amino)methyl)-4-chloro-5-((3′-(3-(3-hydroxypyrrolidin-1-yl)propoxy)-2,2′-dimethyl-[1,1′-biphenyl]-3-yl)methoxy)phenoxy)methyl)nicotinonitrile], 1 nM.
For the molecule `Cc1c(COc2cc(OCc3cncc(C#N)c3)c(CNCc3csc(N)n3)cc2Cl)cccc1-c1cccc(OCCCN2CC[C@@H](O)C2)c1C` [Example 2520, (R)-5-((2-((((2-aminothiazol-4-yl)methyl)amino)methyl)-4-chloro-5-((3′-(3-(3-hydroxypyrrolidin-1-yl)propoxy)-2,2′-dimethyl-[1,1′-biphenyl]-3-yl)methoxy)phenoxy)methyl)nicotinonitrile], the concentration for half-maximal inhibition (IC50) stood at 3.1 nM.
The figure for `Cc1c(COc2cc(OCc3cncc(C#N)c3)c(CN(C)Cc3csc(N)n3)cc2Cl)cccc1-c1cccc(OCCCN2CC[C@@H](O)C2)c1C` [Example 2521, (R)-5-((2-((((2-aminothiazol-4-yl)methyl)(methyl)amino)methyl)-4-chloro-5-((3′-(3-(3-hydroxypyrrolidin-1-yl)propoxy)-2,2′-dimethyl-[1,1′-biphenyl]-3-yl)methoxy)phenoxy)methyl)nicotinonitrile] is 0.7 nM; for `Cc1onc(-c2ccccc2)c1CNCc1cc(Cl)c(OCc2cccc(-c3cccc(OCCCN4CC[C@@H](O)C4)c3C)c2C)cc1OCc1cncc(C#N)c1` [Example 2522, (R)-5-((4-chloro-5-((3′-(3-(3-hydroxypyrrolidin-1-yl)propoxy)-2,2′-dimethyl-[1,1′-biphenyl]-3-yl)methoxy)-2-((((5-methyl-3-phenylisoxazol-4-yl)methyl)amino)methyl)phenoxy)methyl)nicotinonitrile] it is 23.2 nM; for `Cc1onc(-c2ccccc2)c1CN(C)Cc1cc(Cl)c(OCc2cccc(-c3cccc(OCCCN4CC[C@@H](O)C4)c3C)c2C)cc1OCc1cncc(C#N)c1` [Example 2523, (R)-5-((4-chloro-5-((3′-(3-(3-hydroxypyrrolidin-1-yl)propoxy)-2,2′-dimethyl-[1,1′-biphenyl]-3-yl)methoxy)-2-((methyl((5-methyl-3-phenylisoxazol-4-yl)methyl)amino)methyl)phenoxy)methyl)nicotinonitrile] it is 178 nM.
To `Cc1c(COc2cc(OCc3cncc(C#N)c3)c(CNCc3cn[nH]c3)cc2Cl)cccc1-c1cccc(OCCCN2CC[C@@H](O)C2)c1C` [Example 2524, (R)-5-((2-((((1H-pyrazol-4-yl)methyl)amino)methyl)-4-chloro-5-((3′-(3-(3-hydroxypyrrolidin-1-yl)propoxy)-2,2′-dimethyl-[1,1′-biphenyl]-3-yl)methoxy)phenoxy)methyl)nicotinonitrile] belongs 5.5 nM.
To `Cc1c(COc2cc(OCc3cncc(C#N)c3)c(CN(C)Cc3cn[nH]c3)cc2Cl)cccc1-c1cccc(OCCCN2CC[C@@H](O)C2)c1C` [Example 2525, (R)-5-((2-((((1H-pyrazol-4-yl)methyl)(methyl)amino)methyl)-4-chloro-5-((3′-(3-(3-hydroxypyrrolidin-1-yl)propoxy)-2,2′-dimethyl-[1,1′-biphenyl]-3-yl)methoxy)phenoxy)methyl)nicotinonitrile] belongs 2.2 nM; to `Cc1noc(C)c1CNCc1cc(Cl)c(OCc2cccc(-c3cccc(OCCCN4CC[C@@H](O)C4)c3C)c2C)cc1OCc1cncc(C#N)c1` [Example 2526, (R)-5-((4-chloro-2-((((3,5-dimethylisoxazol-4-yl)methyl)amino)methyl)-5-((3′-(3-(3-hydroxypyrrolidin-1-yl)propoxy)-2,2′-dimethyl-[1,1′-biphenyl]-3-yl)methoxy)phenoxy)methyl)nicotinonitrile], 3 nM; to `Cc1noc(C)c1CN(C)Cc1cc(Cl)c(OCc2cccc(-c3cccc(OCCCN4CC[C@@H](O)C4)c3C)c2C)cc1OCc1cncc(C#N)c1` [Example 2527, (R)-5-((4-chloro-2-((((3,5-dimethylisoxazol-4-yl)methyl)(methyl)amino)methyl)-5-((3′-(3-(3-hydroxypyrrolidin-1-yl)propoxy)-2,2′-dimethyl-[1,1′-biphenyl]-3-yl)methoxy)phenoxy)methyl)nicotinonitrile], 5.4 nM.
Molecule `Cc1cc(CNCc2cc(Cl)c(OCc3cccc(-c4cccc(OCCCN5CC[C@@H](O)C5)c4C)c3C)cc2OCc2cncc(C#N)c2)no1` [Example 2528, (R)-5-((4-chloro-5-((3′-(3-(3-hydroxypyrrolidin-1-yl)propoxy)-2,2′-dimethyl-[1,1′-biphenyl]-3-yl)methoxy)-2-((((5-methylisoxazol-3-yl)methyl)amino)methyl)phenoxy)methyl)nicotinonitrile] had a half-maximal inhibitory concentration (IC50) of 3.1 nM. Compared with the last molecule, the IC50 is about 1.7-fold lower.
To `Cc1cc(CN(C)Cc2cc(Cl)c(OCc3cccc(-c4cccc(OCCCN5CC[C@@H](O)C5)c4C)c3C)cc2OCc2cncc(C#N)c2)no1` [Example 2529, (R)-5-((4-chloro-5-((3′-(3-(3-hydroxypyrrolidin-1-yl)propoxy)-2,2′-dimethyl-[1,1′-biphenyl]-3-yl)methoxy)-2-((methyl((5-methylisoxazol-3-yl)methyl)amino)methyl)phenoxy)methyl)nicotinonitrile] belongs 1.1 nM; to `Cc1c(COc2cc(OCc3cncc(C#N)c3)c(CNCc3nccs3)cc2Cl)cccc1-c1cccc(OCCCN2CC[C@@H](O)C2)c1C` [Example 2530, (R)-5-((4-chloro-5-((3′-(3-(3-hydroxypyrrolidin-1-yl)propoxy)-2,2′-dimethyl-[1,1′-biphenyl]-3-yl)methoxy)-2-(((thiazol-2-ylmethyl)amino)methyl)phenoxy)methyl)nicotinonitrile], 6.2 nM; to `Cc1c(COc2cc(OCc3cncc(C#N)c3)c(CNCc3cncs3)cc2Cl)cccc1-c1cccc(OCCCN2CC[C@@H](O)C2)c1C` [Example 2531, (R)-5-((4-chloro-5-((3′-(3-(3-hydroxypyrrolidin-1-yl)propoxy)-2,2′-dimethyl-[1,1′-biphenyl]-3-yl)methoxy)-2-(((thiazol-5-ylmethyl)amino)methyl)phenoxy)methyl)nicotinonitrile], 3.4 nM.
